This is an account of results in ChEMBL document CHEMBL5055665, “Discovery of the Triazolo[1,5-a]Pyrimidine-Based Derivative WS-898 as a Highly Efficacious and Orally Bioavailable ABCB1 Inhibitor Capable of Overcoming Multidrug Resistance” (J Med Chem, 2021).

For data set [1], the system named is HEK293. Description: Reversal of resistance to paclitaxel-induced cytotoxicity in human HEK293/ABCB1 cells assessed as reduction in paclitaxel IC50 at 2 uM preincubated for 4 hrs followed by paclitaxel addition and measured after 72 hrs by MTT assay (reference value: 91.40 +/- 23.32 nM). It counts as functional, cell-based. (In general: Tetrazolium assays rely on reduction of a dye to a coloured formazan, in cell work by metabolically active cells.)

Data set [2] has as its system SW-620. Description: Reversal of resistance to paclitaxel-induced cytotoxicity in human SW-620 cells assessed as reversal fold at 1 uM preincubated for 4 hrs followed by paclitaxel addition and measured after 72 hrs by MTT assay relative to paclitaxel. It counts as functional. Particulars: time 76 hrs.
The subject of data set [3] is HEK293. As to the kind of experiment: Reversal of resistance to paclitaxel-induced cytotoxicity in human HEK293/ABCB1 cells assessed as reduction in paclitaxel IC50 at 1 uM preincubated for 4 hrs followed by paclitaxel addition and measured after 72 hrs by MTT assay (reference value: 91.40 +/- 23.32 nM). The class given is functional, cell-based.
In data set [4] the test system is SW-620. Description: Antitumor activity against human SW-620/AD300 cells xenografted in BALB/c nude mouse assessed as tumor growth inhibition at 30 mg/kg/day, ig administered for 21 days in presence of paclitaxel. The class given is functional. Further details: scale not given: the % may be the effect or the level left. Particulars: time 21 day.
Data set [5] has as its system SW-620. Description: Effect on subcellular localization of ABCB1 in human SW-620/AD300 cells at 2 uM measured after 72 hrs by Hoechst 33258 staining based immunofluorescence assay. It counts as functional, cell-based.
Data set [6] can be described thus: MRTlast in Sprague-Dawley rat at 10 mg/kg, iv measured up to 24 hrs by LC-MS/MS analysis. It counts as ADME, organism-based. Particulars: in vivo.
Data set [7] concerns HEK293. Description: Reversal of resistance to paclitaxel-induced cytotoxicity in human HEK293/pcDNA3.1 cells assessed as reversal fold at 1 uM preincubated for 4 hrs followed by paclitaxel addition and measured after 72 hrs by MTT assay. Particulars: time 76 hrs. It counts as functional.
For data set [8], the system named is SW-620. Description: Reversal of resistance to paclitaxel-induced cytotoxicity in human SW-620/AD300 cells assessed as reversal fold at 1 uM preincubated for 4 hrs followed by paclitaxel addition and measured after 72 hrs by MTT assay relative to paclitaxel. It counts as functional. The settings on record: time 76 hrs.
The subject of data set [9] is SW-620. Description: Reversal of resistance to paclitaxel-induced cytotoxicity in human SW-620 cells assessed as reversal fold at 2 uM preincubated for 4 hrs followed by paclitaxel addition and measured after 72 hrs by MTT assay relative to paclitaxel. The class given is functional. The settings on record: time 76 hrs.
Data set [10] has as its system SW-620. Description: Reversal of resistance to paclitaxel-induced cytotoxicity in human SW-620 cells assessed as reduction in paclitaxel IC50 at 1 uM preincubated for 4 hrs followed by paclitaxel addition and measured after 72 hrs by MTT assay (reference value: 7.69 +/- 2.78 nM). The class given is functional, cell-based.
In the next data set the test system is KB-C2. Description: Reversal of resistance to paclitaxel-induced cytotoxicity in human KB-C2 cells assessed as reversal fold at 1 uM preincubated for 4 hrs followed by paclitaxel addition and measured after 72 hrs by MTT assay relative to paclitaxel. The class given is functional. Particulars: time 76 hrs.
In another data set the test system is Mus musculus. Description: Toxicity in BALB/c mouse xenografted with human SW-620/AD300 cells assessed as change in body weight at 30 mg/kg/day, ig administered 21 days in presence of paclitaxel. The class given is organism-based. The settings on record: in vivo, po, 504 h, time 21 day. In general terms: In xenograft studies the graft and the host belong to different species.

Data set [11] deals with SW-620. As to the kind of experiment: Antitumor activity against human SW-620/AD300 cells xenografted in BALB/c nude mouse assessed as increase in cells with vacuoles at 30 mg/kg/day, ig administered for 21 days in presence of paclitaxel by TUNEL staining based fluorescence microscopy. It counts as functional, organism-based. Particulars: time 21.0 day.
Data set [12] in a line: AUCinfinity in Sprague-Dawley rat at 10 mg/kg, iv measured up to 24 hrs by LC-MS/MS analysis. It counts as ADME, organism-based. On the set-up: dose 10 mg/kg, time < 24 hrs, route iv. Particulars: in vivo.
Data set [13] relates to SW-620. As to the kind of experiment: Reversal of resistance to paclitaxel-induced cytotoxicity in human SW-620/AD300 cells assessed as reduction in paclitaxel IC50 at 1 uM preincubated for 4 hrs followed by paclitaxel addition and measured after 72 hrs by MTT assay (reference value: 4.23 +/- 0.50 uM). It counts as functional, cell-based.
The nature of data set [14]: Clearance in Sprague-Dawley rat at 10 mg/kg, iv measured up to 24 hrs by LC-MS/MS analysis. The class given is ADME, organism-based. Particulars: in vivo.
A short description of data set [15]: Volume of distribution at steady state in Sprague-Dawley rat at 10 mg/kg, iv measured up to 24 hrs by LC-MS/MS analysis. It counts as ADME, organism-based. Particulars: in vivo, read-out: Vdss.

Calls of active or inactive are those of the source. No cut-off for these calls is given here.

A word on the IC50: it is the concentration that inhibits the measured activity by half. Broadly, the MRT last is the average time that molecules of a dose stay in the body. By AUC(0-inf) is commonly meant total exposure, with the tail of the curve extrapolated. In general, clearance refers to the rate of elimination divided by the concentration. As for `Cc1cc(Nc2ccc(C(=O)/C=C/c3ccc4ccccc4c3)cc2)n2nc(SCc3nc4ccccc4[nH]3)nc2n1`, the IC50 in the data set on HEK293 [1] turned out to be 3.68 nM; with HEK293 [3] it was 9.21 nM; in the data set with SW-620 [10], 7.19 nM; in the data set with SW-620 [13], 28.1 nM. Besides, the “fold change (FC)” value stood at 1.06 in the data set on SW-620 [2]; 1.14 in the data set with HEK293 [7]; 150.38 in the data set on SW-620 [8]; 1.1 in the data set with SW-620 [9]; 118.34 in the data set on KB-C2. Further, the Activity in the data set on SW-620 [4] was 59%; in the data set with Mus musculus, “Non-Toxic”. For the same compound, the result in the data set with SW-620 [5] and in the data set with SW-620 [11] was Active. Further, in [6], the MRT last at 24 h was determined as 5.76 min. The AUC(0-inf) in data set [12] stood at 9450 ng·h/mL. Also, in [14], the clearance was 17.7 mL/min/kg. Moreover, the Vd in data set [15] amounted to 0.114 L/kg.
